Measurements reported in patent US20080140450A1, “Treatment of metabolic syndrome with norfluoxetine” (AMPLA Pharmaceuticals Inc., priority 2006, published 2008).

What was measured:
[1] = test system: monoamine uptake, especially serotonin; conditions: qualitative, known from U.S. Pat. No. 4,313,896; cited from earlier work
CB1 receptor = CB1 receptor (Homo sapiens, UniProt P21554); test: functional activity versus the CB1 receptor; conditions: qualitative statement, no method or numbers given
Excerpt: Without wishing to be restricted by the proposal, this cannabinoid activity may mediate the utility of these compounds for the treatment of metabolic syndrome or the disorders associated with metabolic syndrome.

Sequence of CB1 receptor (P21554 whole entry): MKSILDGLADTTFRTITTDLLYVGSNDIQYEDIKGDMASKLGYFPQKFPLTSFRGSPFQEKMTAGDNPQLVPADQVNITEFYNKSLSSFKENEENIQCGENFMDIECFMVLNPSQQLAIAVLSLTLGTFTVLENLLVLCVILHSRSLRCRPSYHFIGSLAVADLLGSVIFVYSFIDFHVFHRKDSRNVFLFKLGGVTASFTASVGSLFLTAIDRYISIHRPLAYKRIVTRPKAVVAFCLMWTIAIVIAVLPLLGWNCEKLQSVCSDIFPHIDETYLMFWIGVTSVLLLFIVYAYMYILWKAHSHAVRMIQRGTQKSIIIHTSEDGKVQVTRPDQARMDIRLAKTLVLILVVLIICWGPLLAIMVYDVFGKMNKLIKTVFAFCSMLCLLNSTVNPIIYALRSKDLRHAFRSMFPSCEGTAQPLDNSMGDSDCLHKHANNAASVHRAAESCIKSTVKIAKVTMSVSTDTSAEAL

Row | Structure (SMILES) | block of monoamine uptake [1] | functional activity versus the CB1 receptor (mode of action) (CB1 receptor)
1 | NCCC(Oc1ccc(C(F)(F)F)cc1)c1ccccc1 (racemic) [Norfluoxetine, 3-(4-trifluoromethylphenoxy)-3-phenylpropylamine] | block monoamine uptake, especially serotonin | antagonist of CB1
2 | CNCC[C@@H](Oc1ccc(C(F)(F)F)cc1)c1ccccc1 [(R)-fluoxetine] |  | antagonist of CB1
3 | CNCC[C@H](Oc1ccc(C(F)(F)F)cc1)c1ccccc1 [(S)-Fluoxetine] |  | inverse agonist of CB1
